The record followed here is PubChem BioAssay (NCI).

One assay relates to P388/ADR leukemia. Kind of assay: NCI tumour cell line growth inhibition, 48 h.
The next assay has as its system SN12K1 renal. Kind of assay: NCI tumour cell line growth inhibition, 48 h.

Where “and” joins values, the source holds several entries; their conditions need not be identical. Equal values may be shown once.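 Values below derive from 48-hour exposures of cells grown in 96-well plates, with endpoints linearly interpolated between the two concentrations bracketing the appropriate inhibition level. GI50 marks 50% less growth. TGI: concentration producing complete growth inhibition.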

In the case of `O=C(Nc1ccccc1)c1c(O)[nH]c(=S)[nH]c1=O`, in the assay on P388/ADR leukemia, the GI50 was 46.9 µM; the TGI was 80.6 µM and 116 µM. Also, in the assay with SN12K1 renal, the GI50 was 25.2 µM; the TGI is 51.8 µM and 75.1 µM.
